Assay results as given in patent publication US12448393B2, “Use of novel compound, for preventing, improving or treating amyotrophic lateral sclerosis” (PRG S&TECH INC., priority 2019, dated 2025).
“Also recorded” adds a separate entry of the source.

Experiments:
misfolded SOD1 [1] = biological target: misfolded SOD1 (Homo sapiens, UniProt P00441, G94A); experiment: Dot blot analysis of misfolded SOD1 in transfected cell lysates; assay type: cell-based; settings: G93A-transfected cell lysates; FIG. 5E
Procedure: (§1) To detect misfolded SOD1 expression, cells transfected with SOD1 vector were treated with the compounds for 24 hours. After reaction, the cells were lysed with a lysis buffer without surfactant, and then cell lysate was fixed on a nitrocellulose membrane using a Bio-Dot SF Microfiltration apparatus (Bio-Rad Laboratories, Hercules, CA). In the case of peptide reaction, SOD1 recombinant proteins were reacted with the compounds for 1 hour, and then samples were loaded onto membrane. Each membrane was washed with TBS and blocked with 3% skim milk to prevent non specific reaction. After blocking, the membrane was reacted with the misfolded SOD1 or Actin antibody (1:8,000 in TBST including 1% skim milk) for 30 minutes, and then with a secondary antibody (goat anti-mouse IgG-horseradish peroxidase, 1:50,000 in 1% skim milk blocking buffer) for 30 minutes. Antibodies reacted to proteins were detected by ECL and X-ray film exposure. Actin was used as a loading control.

misfolded SOD1 [2] = experiment: as above; assay type: cell-based, human; settings: lysates of cells transfected with WT- or mutant SOD1; FIG. 5D
Procedure: as §1

[3] = tested on: WT-SOD1 and mutant SOD1-GST (A4V, G37R, G85R, G93A); experiment: ELISA compound screening for binding inhibitor between WT-SOD1 and mutant SOD1; parameters: species or system human
Procedure: For compound screening, the present inventors applied an ELISA assay system. To select a binding inhibitor between WT-SOD1 and mutant SOD1, the present inventors used 0.5% paraformaldehyde (PFA) to fix WT-SOD1 recombinant protein on a 96-well plate. The plate was dried, washed with phosphate-buffered saline (PBS), and reacted with the compounds at a final concentration of 50 μM, and then mutant SOD1-GST (A4V, G37R, G85R, G93A) proteins were added. After 2 hours of reaction, the 96-well plate was washed with PBS and blocked with 3% skim milk to prevent non specific reaction. The plate was reacted with anti-GST antibody (diluted at 1:10,000) for 1 hour, and then reacted with anti-mouse IgG-HRP (diluted at 1:50,000) for 1 hour. After washing twice, the plate was reacted with a 3,3′,5,5′-tetramethylbenzidine (TMB) solution (Calbiochem) for 30 minutes and a stop solution (1N H2SO4) for 30 minutes. Finally, the present inventors analyzed values using an ELISA reader (450 nm absorbance). Negative control (−; red line) was reacted without mutant SOD1, and positive control (+; blue line) was reacted with mutant SOD1 without the compounds.
To prepare recombinant proteins, human SOD1 (WT, A4V, G37R, G85R, G93A) was added to EcoRI and HindIII sites of pGEX-TEV vector, an improved vector made by adding a TEV protease cleavage site to pGEX-4T1 (Invitrogen). The recombinant proteins were expressed as GST-fusion proteins in Escherichia coli (E. coli) strain BL21 (DE3). The proteins were purified by glutathione-affinity chromatography.

SOD1 [4] = biological target: SOD1 (Homo sapiens, UniProt P00441); experiment: Western blot / native gel analysis of SOD1 aggregation; assay type: cell-based
Procedure: (§2) Using RIPA buffer (50 mM Tris-Cl, pH 7.5, 150 mM NaCl, 1% NP-40, 0.1% SDS and […]) for SDS-PAGE and lysis buffer (50 mM Tris-Cl, pH 7.5, 150 mM NaCl, 0.3% NP-40) for Native-PAGE, proteins were extracted from cells. Samples were separated by the SDS-PAGE or the Native-PAGE and transferred to PVDF membrane. Blotted membrane was blocked with TBST buffer including 3% skim milk for 1 hour, and reacted with specific antibodies. The reacted antibodies were detected by ECL and X-ray film exposure. Antibodies used in the present disclosure are as follows: pan-SOD1 (GTX100554) was purchased from Genetex (California, USA). Misfolded SOD1-specific antibody (B8H10) was purchased from MediMabs (Montreal, Canada). Actin (sc-1616), GST (sc-138), and GFP (Green fluorescent protein; sc-8036) were purchased from Santa Cruz biotechnology (Santa Cruz, CA, USA). TDP-43 antibody (10782-2-AP) was purchased from Proteintech (Rosemont, IL, USA). Anti-FLAG (Sigma; F3165) was purchased from Sigma Aldrich (St, Louis, Mo, USA), and HRP-conjugated goat anti-mouse, goat anti-rabbit, and mouse anti-goat antibodies (Pierce, Thermo Fisher Scientific, Inc., Rockford, IL, USA) were used as secondary antibodies.
(§3) GFP-SOD1 (WT, G85R, G93A), non-tagged SOD1 (WT, A4V, G37R, G85R, G93A) and tdTomato-TDP43 expression vectors were purchased from Addgene (Cambridge, MA, USA). Transfection was performed using Jet-PEI reagent (JetPEI; Polyplus transfection, New York, NY, USA) according to the manufacturer's protocol. Briefly, vectors were mixed with JetPEI reagent in 150 mM NaCl buffer, and then mixture was reacted for 15 minutes. The mixture was added to cells in serum-free medium and reacted for 4 hours. After reaction, the cells were replaced with a culture medium supplemented with 10% FBS.

SOD1 [5] = experiment: as above; assay type: cell-based, human; settings: for mutant SOD1 aggregation: FIGS. 3B and 3C
Procedure: as §2, §3

Sequence of SOD1 (Homo sapiens, UniProt P00441) (P00441 2-154): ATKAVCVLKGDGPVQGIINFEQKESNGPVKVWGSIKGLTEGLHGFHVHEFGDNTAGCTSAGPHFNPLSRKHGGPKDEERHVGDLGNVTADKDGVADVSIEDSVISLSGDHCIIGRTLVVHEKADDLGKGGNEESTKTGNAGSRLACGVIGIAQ
Sequence of misfolded SOD1 (Homo sapiens, UniProt P00441, G94A) (P00441 2-154 G94A): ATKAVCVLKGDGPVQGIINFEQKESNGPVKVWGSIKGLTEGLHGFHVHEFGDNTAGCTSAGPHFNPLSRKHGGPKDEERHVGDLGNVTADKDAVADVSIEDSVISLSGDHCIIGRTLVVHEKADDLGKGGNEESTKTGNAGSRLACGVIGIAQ

COc1cc(/C=C/C(=O)O[C@H]2Cc3cc4ccc(=O)oc4cc3OC2(C)C)ccc1O [PRG-A-01, (S)-8,8-dimethyl-2-oxo-7,8-dihydro-2H,6H-pyrano[3,2-g]chromen-7-yl (E)-3-(4-hydroxy-3-methoxyphenyl) acrylate]
misfolded SOD1, dot blot, according to doses (misfolded SOD1 [1]): dose-dependent decrease in misfolded SOD1 | misfolded SOD1, dot blot (misfolded SOD1 [2]): reduces misfolding formation of SOD1; also recorded: band intensity clearly decreased | ELISA ([3]; Table 1, compounds at final concentration of 50 μM): Effect ○ | binding inhibition in ELISA compound screening ([3]; WT-SOD1 fixed on plate, GST-tagged mutant SOD1s, FIG. 3A): specific for mutation | SOD1 aggregation and TDP43 aggregation, native gel analysis (SOD1 [4]; TDP-43 overexpression, FIG. 5B): reduced; also recorded: decreased | multimer bands of SOD1 and TDP-43, cross-linking experiment (SOD1 [4]; glutaraldehyde cross-linking, FIG. 5C): blocks multimer formation of SOD1; also recorded: weakened | mutant SOD1 aggregation (SOD1 [5]): inhibits SOD1 aggregation | mutant SOD1 aggregation (SOD1 [5]; listed as SLC-B036): blocking mutant SOD1 aggregation in a dose-dependent manner | Western Blot (SOD1 [5]; Table 1, effect on SOD1 aggregation, native / non-SDS-PAGE gel): Effect ○
